ChEMBL document CHEMBL1152904, “Synthesis and characterization of a BODIPY-labeled derivative of Soraphen A that binds to acetyl-CoA carboxylase” (Bioorg Med Chem Lett, 2009)

Target: Acetyl-CoA carboxylase 2 (Homo sapiens, UniProt O00763)
Assay: Binding affinity to human His-tagged acetyl-CoA-carboxylase biotin carboxylase domain
Settings: read-out: Kd(app)

Sequence of Acetyl-CoA carboxylase 2 (O00763 whole entry, the tested form may be a part): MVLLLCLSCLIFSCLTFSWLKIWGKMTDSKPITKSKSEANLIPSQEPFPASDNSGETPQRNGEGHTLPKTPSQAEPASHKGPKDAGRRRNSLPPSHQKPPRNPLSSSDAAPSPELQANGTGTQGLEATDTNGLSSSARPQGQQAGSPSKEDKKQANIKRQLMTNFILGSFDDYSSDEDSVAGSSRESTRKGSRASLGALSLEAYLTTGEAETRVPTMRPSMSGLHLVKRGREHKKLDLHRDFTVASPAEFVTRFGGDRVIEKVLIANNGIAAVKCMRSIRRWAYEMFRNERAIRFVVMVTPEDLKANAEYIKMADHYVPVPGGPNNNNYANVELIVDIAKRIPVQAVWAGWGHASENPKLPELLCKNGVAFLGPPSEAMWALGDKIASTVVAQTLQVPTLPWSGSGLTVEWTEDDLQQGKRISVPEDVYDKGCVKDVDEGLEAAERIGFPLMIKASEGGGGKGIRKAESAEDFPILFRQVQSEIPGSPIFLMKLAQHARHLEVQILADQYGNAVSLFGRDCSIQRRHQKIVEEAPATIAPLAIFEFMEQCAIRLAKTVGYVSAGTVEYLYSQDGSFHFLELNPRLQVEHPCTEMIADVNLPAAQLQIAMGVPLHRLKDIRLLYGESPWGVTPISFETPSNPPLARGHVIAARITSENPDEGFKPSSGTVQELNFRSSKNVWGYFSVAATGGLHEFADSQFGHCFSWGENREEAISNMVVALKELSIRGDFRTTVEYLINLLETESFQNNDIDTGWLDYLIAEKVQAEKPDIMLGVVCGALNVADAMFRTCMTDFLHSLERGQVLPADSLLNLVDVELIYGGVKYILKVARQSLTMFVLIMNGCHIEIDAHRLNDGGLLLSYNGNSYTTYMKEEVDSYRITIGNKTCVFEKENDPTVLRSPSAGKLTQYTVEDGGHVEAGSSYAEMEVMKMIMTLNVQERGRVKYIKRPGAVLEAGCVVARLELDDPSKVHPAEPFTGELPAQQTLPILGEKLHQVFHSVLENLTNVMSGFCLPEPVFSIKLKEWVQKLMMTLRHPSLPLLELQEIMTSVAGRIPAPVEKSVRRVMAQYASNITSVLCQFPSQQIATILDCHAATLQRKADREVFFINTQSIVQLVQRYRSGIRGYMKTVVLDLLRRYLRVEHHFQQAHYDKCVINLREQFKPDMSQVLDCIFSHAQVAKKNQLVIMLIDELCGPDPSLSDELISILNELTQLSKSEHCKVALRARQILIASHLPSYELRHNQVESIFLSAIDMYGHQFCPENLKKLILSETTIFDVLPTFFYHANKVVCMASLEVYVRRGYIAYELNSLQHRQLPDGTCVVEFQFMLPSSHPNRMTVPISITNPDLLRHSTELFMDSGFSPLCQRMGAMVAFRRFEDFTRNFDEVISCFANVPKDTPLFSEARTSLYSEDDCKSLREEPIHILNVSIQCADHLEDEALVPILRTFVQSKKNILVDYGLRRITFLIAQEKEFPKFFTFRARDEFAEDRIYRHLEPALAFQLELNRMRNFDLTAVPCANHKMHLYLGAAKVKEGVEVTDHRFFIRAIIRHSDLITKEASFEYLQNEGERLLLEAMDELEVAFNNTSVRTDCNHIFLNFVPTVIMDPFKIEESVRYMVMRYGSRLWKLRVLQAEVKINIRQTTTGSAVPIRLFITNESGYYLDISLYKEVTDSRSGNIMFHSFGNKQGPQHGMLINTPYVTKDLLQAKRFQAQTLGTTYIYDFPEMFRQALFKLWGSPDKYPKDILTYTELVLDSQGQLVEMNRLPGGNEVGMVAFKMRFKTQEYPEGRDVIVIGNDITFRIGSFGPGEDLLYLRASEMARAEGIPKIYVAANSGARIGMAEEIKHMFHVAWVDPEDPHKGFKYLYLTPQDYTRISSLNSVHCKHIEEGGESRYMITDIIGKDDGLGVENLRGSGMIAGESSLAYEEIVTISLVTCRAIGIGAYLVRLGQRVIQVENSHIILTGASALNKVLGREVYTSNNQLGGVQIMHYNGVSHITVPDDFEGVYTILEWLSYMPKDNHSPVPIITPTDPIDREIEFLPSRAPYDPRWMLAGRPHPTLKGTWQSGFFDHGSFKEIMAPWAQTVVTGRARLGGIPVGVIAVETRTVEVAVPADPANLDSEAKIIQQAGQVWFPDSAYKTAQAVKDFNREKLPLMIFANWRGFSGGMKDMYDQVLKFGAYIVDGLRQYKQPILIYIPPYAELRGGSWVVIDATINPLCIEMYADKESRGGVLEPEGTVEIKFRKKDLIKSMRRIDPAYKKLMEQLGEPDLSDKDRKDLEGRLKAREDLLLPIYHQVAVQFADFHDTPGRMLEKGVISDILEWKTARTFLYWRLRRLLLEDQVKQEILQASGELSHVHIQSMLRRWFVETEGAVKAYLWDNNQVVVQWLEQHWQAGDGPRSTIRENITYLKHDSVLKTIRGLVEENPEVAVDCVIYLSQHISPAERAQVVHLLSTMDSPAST

Kd: 3 nM
Compound: CO[C@H]1CCCC[C@@H](c2ccccc2)OC(=O)[C@@H](C)[C@@]2(O)O[C@H]([C@@H](C)[C@H](O)[C@H]2OC)[C@@H](C)/C=C/[C@H]1OC(=O)CCC1=[N+]2C(=Cc3c(C)cc(C)n3[B-]2(F)F)C=C1
